For data set [1] the following is noted: in words; cited from earlier work.
Data set [2] concerns Micrococcus catarrhalis, Staphylococcus aureus, Bacillus influenzae, pneumococcus, Escherichia coli, Bacillus dysenteria, Bacillus proteus, Bacillus …. Conditions: in words; cited from earlier work.
Data set [3] relates to Bacillus typhi, and Leptopira. Conditions: in words; cited from earlier work.
The nature of data set [4]: Particle size analysis by laser diffraction. The format is physicochemical. Conditions: commercial grade, needle-like crystals. Here is the method:
Studies were run using sutures coated with the sodium houttuyfonate antimicrobial coatings disclosed herein, with the sodium houttuyfonate coatings prepared using either ground or unground sodium houttuyfonate. The sutures were coated at two coating levels, using the coating method described hereinabove. Particle size analysis was performed using a Beckman Coulter model LS 320 laser diffraction particle size analyzer. Results for these studies are presented below in Tables 5-7 and graphically depicted in FIGS. 1 and 2.

A further data set deals with susceptible strains. Conditions: in words; cited from earlier work.
The conditions of data set [5]: cited from earlier work.

Structures are written as SMILES.

The values that follow come from patent US20130196052A1, “ANTIMICROBIAL/ANTIBACTERIAL MEDICAL DEVICES COATED WITH TRADITIONAL CHINESE MEDICINES” (ETHICON, INC., priority 2009, published 2013).

On to `CCCCCCCCCC(=O)CC=O` [Houttuynin, decanoyl acetaldehyde], for which, in data set [1], the stability entry is “unstable and prone to polymerize”. For the same molecule, in data set [2], the “inhibitory effect in vitro” value is “marked inhibitory effect”. In data set [3], the effect in vitro result is “strong effect”.

Regarding `CCCCCCCCCC(=O)CC(O)S(=O)(=O)O` (centres unmarked) [Commercial grade sodium houttuyfonate, sodium houttuyfonate], the “particle size distribution, mean” value in data set [4] was “approximately 145 μm”.

`Oc1cc(Cl)ccc1Oc1ccc(Cl)cc1Cl` [triclosan]: the “mode of antibacterial activity” value with susceptible strains is reported as “predominantly bacteriostatic activity”.

In the case of `CCCCCCCCCC(=O)CC(O)S(=O)(=O)O` (centres unmarked) [sodium houttuyfonate], the “solubility in cold water” value in data set [5] (cold water) was “only slightly soluble”. Further, the “solubility in most organic solvents” value in data set [5] (organic solvents such as acetonitrile and methanol) is given as “only slightly soluble”. The stability result in data set [1] is “more stable”.
